The subject of one data set is onychomycosis. To be noted: topical formulations; do not penetrate the nail; cited from earlier work.
The test system of data set [1] is XL-1 antibiotic resistant bacteria. The following applies: 30 and 60 mg/ml, 16 hr and 40 hr. The procedure:
FIGS. 11A-11D are images of agar plates seeded with XL-1 antibiotic resistant bacteria comparing the effectiveness of sodium hypochlorite (11A and 11C) and calcium hypochlorite (11B and 11D) at 16 hr (11A and 11B) and 40 hr (11C and 11D). Sodium hypochlorite (11A and 11C): 0, water; 1 30 mg/ml with alginate; 2, 60 mg/ml with alginate; 3, 60 mg/ml without alginate; 4, 30 mg/ml without alginate. Calcium hypochlorite (11B and 11D): 0, water; 1 25 mg/ml with alginate; 2, 50 mg/ml with alginate; 3, 50 mg/ml without alginate; 4, 25 mg/ml without alginate.

The nature of data set [2]: decomposition of calcium hypochlorite under ambient light. The format is physicochemical. The following applies: 200 mg/ml, 37° C., without stabilization in alginate-calcium hydrogel. How it is done:
In one embodiment, the interactions of calcium hypochlorite and alginate control the release of chlorine over time, which allows prolonged and continuous exposure. Without stabilization of calcium hypochlorite in alginate-calcium hydrogel, calcium hypochlorite at a concentration of 200 mg/ml is decomposed under ambient light within 30 min at 37° C. In a composition containing 1% alginate tested at room temperature (without exposing to light), about 40-50% of chlorine was released over 2 hr test period for all calcium hypochlorite concentrations tested (FIG. 2). […] It is understood that the physical structure of the gel can take the form of particles, sheets, or appropriate structure to optimize the surface suitable for release of the active hypohalite form.

With `Clc1ccccc1C(c1ccccc1)(c1ccccc1)n1ccnc1` [clotrimazole], the effectiveness for onychomycosis entry in the data set on onychomycosis was “totally ineffective”.
Take sodium chlorite: the “effectiveness with vs without alginate” value in data set [1] is “not affected by the presence of alginate”.
With `CN(C/C=C/C#CC(C)(C)C)Cc1cccc2ccccc12` [terbinafine], the effectiveness for onychomycosis entry in the data set on onychomycosis is reported as “totally ineffective”.
With `[Ca+2].[O-]Cl.[O-]Cl` [calcium hypochlorite], the time to decomposition in data set [2] is at most 30 min.
